From ChEMBL document CHEMBL1201862, “PubChem BioAssay data set” (2004)
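Five compound concentrations were applied to cells in 96-well plates for 48 hours; endpoints were derived by simple linear interpolation of the resulting dose-response curve. GI50: concentration for 50% inhibition of growth.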 Activity calls are given as the source filed them. Rule as the data show it: active = GI50 up to about 1.1 µM and inactive = higher. Where a SMILES comes first, the peptide text is derived from it. The star is where a group is joined. Boc = CC(C)(C)OC(=O)*

Tests used:
Experiment in all cases: DTP human tumour cell line panel, 48 h
[1] = system: SK-OV-3
[2] = system: UACC-257
[3] = system: MDA-N
[4] = system: IGROV-1
[5] = system: SW-620
[6] = system: SNB-19
[7] = system: KM12
[8] = system: NCI/ADR-RES
[9] = system: M14
[10] = system: SF-295
[11] = system: SR
[12] = system: U-251
[13] = system: RPMI-8226
[14] = system: OVCAR-5
[15] = system: COLO 205
[16] = system: Hs-578T
[17] = system: A498
[18] = system: SK-MEL-28
[19] = system: SF-268
[20] = system: HL-60

For `CN(NC(=O)/C(=C/C=C/c1ccccc1)NC(=O)c1ccccc1)C1=C(Cl)C(=O)[N+](c2ccccc2)=CC1`, the GI50 [1] was > 100 µM (inactive), the GI50 [2] was 41.2 µM (inactive) and the GI50 [3] was 18.2 µM (inactive). The GI50 [4] was 12.1 µM (inactive), the GI50 [5] was 16.4 µM (inactive) and the GI50 [6] was 25.4 µM (inactive). For the same compound, the GI50 [7] was 16.7 µM (inactive), the GI50 [8] was 20.7 µM (inactive) and the GI50 [9] was 18.1 µM (inactive). For the same compound, the GI50 [10] was 35 µM (inactive), the GI50 [11] was 21.4 µM (inactive) and the GI50 [12] was 19.8 µM (inactive). For the same compound, the GI50 [13] was 23.9 µM (inactive), the GI50 [14] was > 100 µM (inactive) and the GI50 [15] was 17.5 µM (inactive). For the same compound, the GI50 [16] was 42.7 µM (inactive), the GI50 [17] was 39.4 µM (inactive) and the GI50 [18] was 16.9 µM (inactive). For the same compound, the GI50 [19] was 29.6 µM (inactive).
`O=C(O)c1ccccc1.[Ag]` was tested, and the GI50 [1] was 17.4 µM (inactive), the GI50 [2] was 5.11 µM (inactive) and the GI50 [3] was 7.91 µM (inactive). The GI50 [4] was 15.7 µM (inactive), the GI50 [6] was 39.4 µM (inactive) and the GI50 [7] was 19.5 µM (inactive). The GI50 [8] was 34.6 µM (inactive), the GI50 [9] was 19.5 µM (inactive) and the GI50 [10] was 64 µM (inactive). The GI50 [11] was 5.12 µM (inactive), the GI50 [12] was 18.5 µM (inactive) and the GI50 [13] was 2.23 µM (inactive). For the same compound, the GI50 [14] was 22.9 µM (inactive), the GI50 [15] was 1.87 µM (inactive) and the GI50 [16] was 28.2 µM (inactive). For the same compound, the GI50 [17] was 19.2 µM (inactive), the GI50 [18] was 16.9 µM (inactive) and the GI50 [20] was 3.98 µM (inactive). The GI50 [19] was 21.8 µM (inactive).
In the case of `CCOC(=O)Cn1c(=O)ccn(COCCO)c1=O`, the GI50 [2] is reported as > 100 µM (inactive), the GI50 [3] is reported as > 100 µM (inactive) and the GI50 [4] is reported as > 100 µM (inactive). The GI50 [5] was > 100 µM (inactive), the GI50 [6] was > 100 µM (inactive) and the GI50 [7] was > 100 µM (inactive). For the same compound, the GI50 [8] was > 100 µM (inactive), the GI50 [9] was > 100 µM (inactive) and the GI50 [11] was > 10 µM (inactive). For the same compound, the GI50 [12] was > 100 µM (inactive), the GI50 [13] was > 100 µM (inactive) and the GI50 [14] was > 100 µM (inactive). For the same compound, the GI50 [15] was > 100 µM (inactive), the GI50 [16] was > 100 µM (inactive) and the GI50 [17] was > 100 µM (inactive). For the same compound, the GI50 [18] was > 100 µM (inactive), the GI50 [20] was > 100 µM (inactive) and the GI50 [19] was > 100 µM (inactive).
With `COc1cc([C@@H]2c3cc4c(cc3[C@@H](Nc3ccc([N+](=O)[O-])cc3C(=O)c3ccccc3)[C@H]3COC(=O)[C@H]23)OCO4)cc(OC)c1OC` the GI50 [1] was 0.46 µM (active), the GI50 [3] was 0.0687 µM (active) and the GI50 [4] was 0.5 µM (active). The GI50 [5] was 0.233 µM (active), the GI50 [6] was 0.603 µM (active) and the GI50 [7] was 0.266 µM (active). For the same compound, the GI50 [8] was 0.587 µM (active), the GI50 [9] was 0.281 µM (active) and the GI50 [10] was 0.196 µM (active). The GI50 [11] was 0.177 µM (active), the GI50 [12] was 0.354 µM (active) and the GI50 [13] was 0.394 µM (active). For the same compound, the GI50 [14] was 0.555 µM (active), the GI50 [15] was 0.293 µM (active) and the GI50 [16] was 5.05 µM (inactive). The GI50 [17] was 0.415 µM (active), the GI50 [20] was 0.211 µM (active) and the GI50 [19] was 0.472 µM (active).
`O=c1cc(O)c2c(O)cc(O)cc2o1` was tested, and the GI50 [2] was > 100 µM (inactive), the GI50 [3] was > 100 µM (inactive) and the GI50 [4] was > 100 µM (inactive). For the same compound, the GI50 [5] was > 100 µM (inactive), the GI50 [6] was > 100 µM (inactive) and the GI50 [8] was > 100 µM (inactive). For the same compound, the GI50 [9] was > 100 µM (inactive), the GI50 [10] was > 100 µM (inactive) and the GI50 [11] was > 100 µM (inactive). The GI50 [12] was > 100 µM (inactive), the GI50 [13] was > 100 µM (inactive) and the GI50 [14] was > 100 µM (inactive). The GI50 [15] was > 100 µM (inactive), the GI50 [16] was > 100 µM (inactive) and the GI50 [17] was > 100 µM (inactive). The GI50 [18] was > 100 µM (inactive), the GI50 [20] was > 100 µM (inactive) and the GI50 [19] was > 100 µM (inactive).
`CCN1C(=O)/C(=C/Nc2ccccc2)S/C1=N/Nc1nc(-c2ccc(O)c(O)c2)cs1` was tested, and the GI50 [1] was 33.5 µM (inactive), the GI50 [2] was 6.44 µM (inactive) and the GI50 [3] was 1.71 µM (inactive). The GI50 [4] was 32.6 µM (inactive), the GI50 [5] was 8.47 µM (inactive) and the GI50 [6] was 4.66 µM (inactive). For the same compound, the GI50 [7] was 5.01 µM (inactive), the GI50 [8] was 3.61 µM (inactive) and the GI50 [9] was 5.61 µM (inactive). For the same compound, the GI50 [10] was 4.46 µM (inactive), the GI50 [11] was 2.7 µM (inactive) and the GI50 [12] was 6.56 µM (inactive). The GI50 [13] was 12.3 µM (inactive), the GI50 [14] was > 100 µM (inactive) and the GI50 [15] was 35.5 µM (inactive). The GI50 [16] was 96.2 µM (inactive), the GI50 [18] was 7.59 µM (inactive) and the GI50 [20] was 2.33 µM (inactive). For the same compound, the GI50 [19] was 23.4 µM (inactive).
With `COC(=O)C(C)NC(=O)C(CCSC)NC(=O)C(Cc1ccccc1)NC(=O)OC(C)(C)C` (stereo not drawn) (Boc-Phe-Met-Ala-OMe; configuration not given here) the GI50 [1] was > 100 µM (inactive), the GI50 [2] was > 100 µM (inactive) and the GI50 [3] was > 100 µM (inactive). For the same compound, the GI50 [4] was > 100 µM (inactive), the GI50 [5] was > 100 µM (inactive) and the GI50 [6] was > 100 µM (inactive). For the same compound, the GI50 [7] was > 100 µM (inactive), the GI50 [8] was > 100 µM (inactive) and the GI50 [9] was > 100 µM (inactive). The GI50 [10] was > 100 µM (inactive), the GI50 [11] was > 100 µM (inactive) and the GI50 [12] was > 100 µM (inactive). The GI50 [13] was > 100 µM (inactive), the GI50 [14] was > 100 µM (inactive) and the GI50 [15] was > 100 µM (inactive). The GI50 [16] was > 100 µM (inactive), the GI50 [18] was > 100 µM (inactive) and the GI50 [20] was 63.2 µM (inactive). The GI50 [19] was > 100 µM (inactive).
